The values below come from paper PMC5903475, “Food-Derived Hemorphins Cross Intestinal and Blood–Brain Barriers In Vitro” (Frontiers in Endocrinology, 2018).

The subject of data set [1] is Caco-2/TC7 cell barrier (human intestinal barrier model). The note with it: for Time of first appearance of the intact peptide in the basal compartment / Passage of the intact peptide across the Caco-2 monolayer: 5 mM apical; for Passage of the intact peptide across the Caco-2 monolayer: basal samples 5-120 min, MRM; for Intact peptide or fragments present in the apical compartment, intestinal barrier / Intact peptide or fragments present in the basal compartment, intestinal barrier: peptide applied apically at 5 mM, end of the 120 min passage test, LC-MS/MS.
Description: For the experiment, they were seeded at the density of 60 × 10^3 cells cm^−2 into cell culture inserts in 6-well culture plates and grown for 21 days.
The day of the trans-intestinal transport test, growth media were removed, and cells were first rinsed with the transport medium, HBSS-Hepes buffer supplemented with CaCl2 (2.5 mM final) and MgCl2 (0.5 mM final) in the apical (1 mL) and basolateral chambers (2.5 mL), then pre-incubated for 30 min with the transport medium. All incubations were performed at 37°C, 10% CO2 atmosphere. To control the integrity of the Caco-2/TC7 cell barrier, the paracellular transport marker lucifer yellow (LY, 100 µM final) was applied apically into each well and its transport into the basolateral chamber was monitored by spectrofluorescence. Each hemorphin was diluted for a final concentration of 5 mM in transport medium-LY and applied to the apical chamber at t0. In parallel, control wells were incubated with transport medium-LY only and all conditions were tested in triplicate. At t5, 15, 30, and 60 min, 100 µL samples were collected in the basal chamber and replaced by the same volume of transport medium. At t120 min, all remaining media in basal and apical chambers were collected and all samples were stored at −80°C. The rate of LY transport was determined by fluorescence readings (ex 485/em 530 nm) at each time point on the spectrofluorometer Safas Xenius XC (Safas Monaco, Monaco, France) and calculating the apparent permeability coefficient (Papp) as follows: (ΔQ/Δt) × (Vb/(A × C0)), where ΔQ is the change in LY concentration in the basal chamber (μM); Δt is the transport duration (s); Vb is the volume in the basal chamber (mL); A is the surface area of the insert/transwell membrane (cm^2); and C0 is the initial concentration of LY applied to the apical chamber (μM).
LC-MS/MS analysis was performed on a UFLC-XR device (Shimadzu, Kyoto, Japan) coupled to a QTRAP® 5500 MS/MS hybrid system triple quadrupole/linear ion trap mass spectrometer (AB Sciex, Foster City, CA, USA) equipped with a Turbo VTM ion source. Instrument control, data acquisition, and processing were performed using Analyst 1.5.2 software. The reverse phase liquid chromatography separation was carried out on a Kromasil C18 column (100 × 2.1 mm, 3.5 µm) with guard cartridge from AIT-France (Houilles, France). The injection volume was 2 µL. Elution was performed at a flow rate of 200 µL min^−1 with water-formic acid 0.1% as eluent A and acetonitrile-formic acid 0.1% as eluent B. The injection duty cycle was 10 min, starting with a 1 min plateau with 25% B, followed by a linear gradient from 25 B to 60% B in 4 min, a 1 min plateau with 60% B, 1 min linear gradient from 60 to 25% B, and 3 min at 25% B to recondition the column. MS analysis was carried out in positive ionization mode. The ion source parameters were optimized and set as follows: ion spray voltage, 5,500 V; nebulizer gas (air) and curtain gas (nitrogen) flows, 50 and 25 psi, respectively; source temperature, 550°C with the auxiliary gas flow (air) set at 50 psi; declustering potential (DP), 100 V; and collision cell exit potential, 25 V. The mass spectrometer was operated at a unit resolution for both Q1 and Q3 with a dwell time of 90 ms in each transition.
The presence of each intact hemorphin and potential fragments were tracked by a combination of multiple reaction monitoring (MRM) and pseudo-MRM transitions.

For data set [2] the following is noted: background statement, no reference printed for it; cited from earlier work.
Data set [3] deals with brain-like endothelial cells (BLEC) co-cultured with bovine brain pericytes (human BBB model). The note with it: peptide applied apically at 100 µM; table footnote says end of 120 min test, Figure 4 says 30 min. On the procedure:
The brain-like endothelial cell model has previously been described in detail ([28]). All the sample donors had given their written informed consent, in compliance with French legislation and the 2013 version of the Declaration of Helsinki. The sample collection was approved by the local investigational review board (Bethune Maternity Hospital Béthune, France). Briefly, this human model consists in isolating CD34+ cells from umbilical cord blood. These cells are then cultured in endothelial cell medium supplemented with 20% FCS for 15–20 days. After this period, cells are differentiated into endothelial cells. After a trypsinization step, they are seeded on matrigel coated-transwell inserts in 12-well culture plates, and subsequently cultured with brain pericytes, isolated from bovine brain capillaries. After 6 days of co-culture, human endothelial cells acquire the BBB phenotype, and are then named BLECs.
(§1) The day of the transport test, the same procedure as for the intestinal passage assay was applied except that the transwell inserts were transferred to a new 12-well culture plate at each time point, 30, 60, 90, and 120 min. All incubations were performed at 37°C, 5% CO2 atmosphere with slight agitations. The transport medium consisted in Ringer-Hepes solution (150 mM NaCl, 5.2 mM KCl, 2.2 mM CaCl2, 0.2 mM MgCl2⋅6H2O, 6 mM NaHCO3, 5 mM HEPES, pH 7.4). […] A test was performed without cells to insure that the filter membrane was not preventing the passage of the peptides.
The injection volume was 2 µL.

Data set [4] deals with BLEC blood-brain barrier model. The note with it: hemorphin 100 µM apical; Dunnett's post hoc. The protocol:
as §1

The next data set concerns Caco-2/TC7 cell barrier. The settings on record: LY 100 µM with hemorphin 5 mM apical.
Another data set concerns blood-brain barrier. The settings on record: 125I-H7; rats; cited from earlier work.
Data set [5] concerns mu- and kappa-transfected CHO-cells. Also on record: method as in Fukuda et al. 45. The note with it: ref Fukuda et al. 45; cited from earlier work.
Data set [6] deals with FK-induced intracellular cAMP in Caco-2 cells. As to the kind of experiment: cAMP determination assay in forskolin-stimulated Caco-2 cells. The note with it: 1 µM alone, 15 min. Type of data set: cell-based, human. The protocol: For the cAMP determination assay and the gene expression study, the cell line used was the Caco-2 cell line purchased from Sigma-Aldrich (Steinheim, Germany). Cells were grown at 37°C, 5% CO2 atmosphere in Dulbecco’s modified Eagle’s Medium (DMEM, 4.5 g L^−1 glucose) supplemented with 10% FBS, 2 mM L-glutamine, 100 U mL^−1 penicillin, and 100 µg mL^−1 streptomycin (complete DMEM) until use. Caco-2 from passages 34–37 were used. For the transport studies, the cell lines used and the culture protocols conditions are described in detail in dedicated subsections below.
The effect of the five opioid peptides/hemorphins on the cAMP production was assessed in vitro in Caco-2 cells. Each hemorphin was applied on Caco-2 cells stimulated or not by FK, an activator of the cAMP pathway, in order to evaluate the ability of the peptides to decrease intracellular cAMP elevation induced by FK. […] At the end of the 15 min incubation, cells were immediately rinsed three times with PBS and plates were stored at −80°C until intracellular cAMP levels determination with the Mouse/Rat cAMP Parameter Assay Kit according to the manufacturer’s guidelines. cAMP levels were normalized by the total protein concentration determined by the Pierce BCA Protein Assay Kit for each sample and expressed as a percentage of the reference condition FK only.

The next data set has as its system caco-2 cell monolayer. Also on record: method as in PMID 18468445. The note with it: cited from earlier work.
A short description of another data set: physchem. The settings on record: pH 7.4.

Where a SMILES comes first, the peptide text is derived from it. Where no end group is shown, it is not given here.

`C[C@@H](O)[C@H](NC(=O)[C@H](Cc1c[nH]c2ccccc12)NC(=O)[C@@H]1CCCN1C(=O)[C@@H](N)Cc1ccc(O)cc1)C(=O)O` [H4, YPWT] (H-YPWT-OH): the “Time of first identification of the fragment in basal samples” value in data set [1] (fragment released from hemorphins applied at 5 mM, Caco-2 model) is 5 min. For the same compound, the Stability in plasma result in data set [2] is given as “very stable in plasma”.

VVYPWT [VV-H4, VV-YPWT]: in [1] (Caco-2 model), the “Time of first appearance of the intact peptide in the basal compartment” value (shortened to “Time … in the basal compartment”) came to 60 min. Also, in data set [1], the “Passage of the intact peptide across the Caco-2 monolayer” value was “clearly able to cross intact the cell monolayer”; the “Intact peptide or fragments present in the apical compartment, intestinal barrier” value is reported as “VV-H4, H4”; the “Intact peptide or fragments present in the basal compartment, intestinal barrier” value is “H4, VV-H4”. For the same compound, the “Intact peptide or fragments present in the basal compartment, BBB” value (“Intact peptide or fragments present … BBB” for short) in data set [3] is given as “H4, VV-H4”. Further, in data set [4], the “Papp(LY) compared to control, BBB model” value stood at 142.2 ± 26.71%.

On to VVYPWTQRF [VV-H7, VV-YPWTQRF], for which, in data set [1], the “Passage of the intact peptide across the Caco-2 monolayer” value was “found in traces”; the “Intact peptide or fragments present in the apical compartment, intestinal barrier” value is reported as “VV-H7, VV-H4, H7, H6”; the “Intact peptide or fragments present in the basal compartment, intestinal barrier” value is given as “H4, VV-H7, H7, H3”. In addition, the “Papp(LY) compared to control, intestinal barrier model” value with Caco-2/TC7 cell barrier is recorded as “decreased compared to control (non-significant)”. The “Intact peptide or fragments present … BBB” value in data set [3] is on record as “H4, VV-H7, VV-H4, H7, H3, H5”.

Turning to LVVYPWT [LVV-H4, LVV-YPWT], the “Time … in the basal compartment” value in [1] (Caco-2 model) amounted to 60 min. Further, in data set [1], the “Passage of the intact peptide across the Caco-2 monolayer” value is recorded as “clearly able to cross intact the cell monolayer”; the “Intact peptide or fragments present in the apical compartment, intestinal barrier” value is reported as “LVV-H4, VV-H4, H4”; the “Intact peptide or fragments present in the basal compartment, intestinal barrier” value is on record as “H4, VV-H4, LVV-H4”. Moreover, the “Intact peptide or fragments present … BBB” value in data set [3] was “H4, VV-H4, LVV-H4”.

On to YPWTQRF [H7, YPWTQRF], for which the “Time … in the basal compartment” value in data set [1] (Caco-2 model) stood at 5 min. Moreover, in data set [1], the “Passage of the intact peptide across the Caco-2 monolayer” value is “clearly able to cross intact the cell monolayer”. Moreover, the “Time to BBB passage after intra-femoral artery injection” value with blood-brain barrier is ≤ 15 min.

For the compound `C=CCN1CC[C@]23c4c5ccc(O)c4O[C@H]2C(=O)CC[C@@]3(O)[C@H]1C5` [naloxone], the “Activity at opioid receptors in transfected CHO-cells” value in data set [5] is reported as “partial agonist activity”. In addition, the “Intracellular cAMP, % of FK levels” value in data set [6] is on record as 68.42 ± 6.87%.

Regarding endomorphine-1, the “Permeability through a caco-2 cell monolayer” value in the data set with caco-2 cell monolayer was “low permeability”.

As usually defined, the solubility is the concentration that dissolves in the medium under given conditions. A high value points to much dissolved substance. Take LLVVYPWT [LLVV-H4, LLVV-YPWT]: the “Passage of the intact peptide across the Caco-2 monolayer” value in data set [1] is given as “not detected”. Further, in the data set on Caco-2/TC7 cell barrier, the “Papp(LY) compared to control, intestinal barrier model” value is “decreased compared to control (non-significant)”. The “Intact peptide or fragments present … BBB” value in data set [3] was “H4, VV-H4, LVV-H4, LLVV-H4”. For the same compound, the solubility in the data set “physchem” was > 50 µM. The “Papp(LY) compared to control, BBB model” value in data set [4] is given as 133.2 ± 16.44%.
